Results taken from ChEMBL document CHEMBL5465560, “Selectivity Literature for EUbOPEN Chemogenomic Library” (2024).

Legend:
[1] = target: T1, Serine/threonine-protein kinase Nek1 (Homo sapiens) (UniProt Q96PY6); settings: at 10 µM
T1 sequence (whole entry): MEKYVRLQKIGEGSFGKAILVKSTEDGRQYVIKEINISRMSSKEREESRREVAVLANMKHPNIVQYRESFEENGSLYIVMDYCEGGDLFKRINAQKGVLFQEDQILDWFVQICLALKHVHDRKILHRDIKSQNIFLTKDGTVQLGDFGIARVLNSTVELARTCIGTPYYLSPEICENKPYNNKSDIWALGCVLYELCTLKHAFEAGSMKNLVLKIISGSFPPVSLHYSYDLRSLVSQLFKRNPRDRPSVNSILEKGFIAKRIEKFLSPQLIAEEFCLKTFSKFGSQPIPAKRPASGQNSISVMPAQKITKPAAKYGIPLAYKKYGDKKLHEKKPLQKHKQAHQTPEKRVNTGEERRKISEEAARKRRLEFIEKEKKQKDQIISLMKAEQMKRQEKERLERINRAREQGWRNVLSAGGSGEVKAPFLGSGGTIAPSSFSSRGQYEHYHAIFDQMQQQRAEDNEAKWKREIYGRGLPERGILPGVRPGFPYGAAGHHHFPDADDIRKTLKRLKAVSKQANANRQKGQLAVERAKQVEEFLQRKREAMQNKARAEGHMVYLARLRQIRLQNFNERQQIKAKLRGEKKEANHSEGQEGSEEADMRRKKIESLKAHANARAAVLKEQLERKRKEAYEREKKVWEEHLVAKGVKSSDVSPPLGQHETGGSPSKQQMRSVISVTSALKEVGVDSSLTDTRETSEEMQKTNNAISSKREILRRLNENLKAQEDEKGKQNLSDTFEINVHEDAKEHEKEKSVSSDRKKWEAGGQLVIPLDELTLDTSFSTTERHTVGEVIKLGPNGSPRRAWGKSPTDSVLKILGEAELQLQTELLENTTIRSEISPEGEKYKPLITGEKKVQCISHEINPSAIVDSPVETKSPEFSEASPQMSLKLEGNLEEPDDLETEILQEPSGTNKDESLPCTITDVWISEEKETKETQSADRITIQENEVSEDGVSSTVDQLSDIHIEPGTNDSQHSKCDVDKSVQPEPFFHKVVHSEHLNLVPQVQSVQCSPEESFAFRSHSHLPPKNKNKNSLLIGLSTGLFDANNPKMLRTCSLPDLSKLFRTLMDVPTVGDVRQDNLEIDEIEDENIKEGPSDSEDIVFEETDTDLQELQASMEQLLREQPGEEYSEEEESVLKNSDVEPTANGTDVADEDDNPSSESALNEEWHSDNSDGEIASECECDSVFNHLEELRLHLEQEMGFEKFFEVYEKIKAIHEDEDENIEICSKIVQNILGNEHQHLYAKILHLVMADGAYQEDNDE

[2] = Selectivity interaction (KinomeScan (DiscoverX)) EUB0000229b PKNB; settings: at 1 µM
[3] = target: T2, Serine/threonine-protein kinase Chk1 (Homo sapiens) (UniProt O14757); test: Selectivity interaction (KinomeScan (DiscoverX)) EUB0000229b CHEK1; settings: at 10 µM
T2 sequence (whole entry): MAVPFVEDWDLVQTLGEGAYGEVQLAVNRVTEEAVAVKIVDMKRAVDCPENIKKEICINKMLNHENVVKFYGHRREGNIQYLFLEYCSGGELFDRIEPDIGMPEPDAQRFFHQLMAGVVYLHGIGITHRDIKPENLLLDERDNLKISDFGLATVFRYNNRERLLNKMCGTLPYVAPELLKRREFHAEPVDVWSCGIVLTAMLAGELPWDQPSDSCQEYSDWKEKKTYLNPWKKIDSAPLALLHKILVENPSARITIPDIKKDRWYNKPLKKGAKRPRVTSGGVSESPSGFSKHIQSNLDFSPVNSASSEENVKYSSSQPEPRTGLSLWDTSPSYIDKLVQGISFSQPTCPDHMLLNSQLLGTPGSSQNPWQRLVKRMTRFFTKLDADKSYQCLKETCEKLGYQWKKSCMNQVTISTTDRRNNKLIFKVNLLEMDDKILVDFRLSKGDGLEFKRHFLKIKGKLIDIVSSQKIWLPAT

[4] = target: Casein kinase I isoform delta (Homo sapiens, UniProt P48730); test: Selectivity interaction (KinomeScan (DiscoverX)) EUB0000092b CSNK1D; settings: at 10 µM
[5] = target: Cyclin-dependent kinase 2/cyclin E (Homo sapiens) (UniProt P24864+P24941+O96020); test: Selectivity interaction (Upstate Kinase Profiler service (Millipore)) EUB0000056c CDK2; type: protein-complex assay; settings: at 1 µM
[6] = target: BMP-2-inducible protein kinase (Homo sapiens) (UniProt Q9NSY1); test: Selectivity interaction (Kinase panel (DSF assay)) EUB0001489b BMP2K
SRSF protein kinase 1 = SRSF protein kinase 1 (Homo sapiens, UniProt Q96SB4); test: Selectivity interaction (ActivX KiNativ screen (kinase selectivity in THP-1 cell lysates)) EUB0000639a SRPK1; type: subcellular; settings: lysate, at 5 µM
[7] = Selectivity interaction (KinomeScan (DiscoverX)) EUB0000695a CDPK1; settings: at 100 nM
[8] = target: T3, Homeodomain-interacting protein kinase 4 (Homo sapiens) (UniProt Q8NE63); test: Selectivity interaction (KinomeScan (DiscoverX)) EUB0000595a HIPK4; settings: at 10 µM
T3 sequence (whole entry): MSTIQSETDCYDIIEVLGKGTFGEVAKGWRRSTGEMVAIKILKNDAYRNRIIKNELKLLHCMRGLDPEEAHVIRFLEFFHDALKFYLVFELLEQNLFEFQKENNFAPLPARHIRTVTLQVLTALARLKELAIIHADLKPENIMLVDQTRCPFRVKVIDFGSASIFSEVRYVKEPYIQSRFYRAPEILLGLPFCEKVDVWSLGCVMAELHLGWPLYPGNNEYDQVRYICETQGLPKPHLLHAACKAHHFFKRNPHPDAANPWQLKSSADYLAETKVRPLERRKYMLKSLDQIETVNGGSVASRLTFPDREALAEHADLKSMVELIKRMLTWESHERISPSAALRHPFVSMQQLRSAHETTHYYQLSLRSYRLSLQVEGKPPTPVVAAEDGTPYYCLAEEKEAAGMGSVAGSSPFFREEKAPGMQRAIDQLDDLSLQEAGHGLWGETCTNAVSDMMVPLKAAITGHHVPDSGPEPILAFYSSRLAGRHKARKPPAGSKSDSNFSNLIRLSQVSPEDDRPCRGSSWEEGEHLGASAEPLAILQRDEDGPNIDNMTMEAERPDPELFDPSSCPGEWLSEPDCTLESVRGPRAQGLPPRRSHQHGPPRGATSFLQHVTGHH

[9] = target: Mitogen-activated protein kinase kinase kinase kinase 1 (Homo sapiens) (UniProt Q92918); test: Selectivity interaction (KinomeScan (DiscoverX)) EUB0001619a MAP4K1; settings: at 1 µM
Mitogen-activated protein kinase kinase kinase kinase 1 (Homo sapiens), sequence (Q92918 whole entry, looked up): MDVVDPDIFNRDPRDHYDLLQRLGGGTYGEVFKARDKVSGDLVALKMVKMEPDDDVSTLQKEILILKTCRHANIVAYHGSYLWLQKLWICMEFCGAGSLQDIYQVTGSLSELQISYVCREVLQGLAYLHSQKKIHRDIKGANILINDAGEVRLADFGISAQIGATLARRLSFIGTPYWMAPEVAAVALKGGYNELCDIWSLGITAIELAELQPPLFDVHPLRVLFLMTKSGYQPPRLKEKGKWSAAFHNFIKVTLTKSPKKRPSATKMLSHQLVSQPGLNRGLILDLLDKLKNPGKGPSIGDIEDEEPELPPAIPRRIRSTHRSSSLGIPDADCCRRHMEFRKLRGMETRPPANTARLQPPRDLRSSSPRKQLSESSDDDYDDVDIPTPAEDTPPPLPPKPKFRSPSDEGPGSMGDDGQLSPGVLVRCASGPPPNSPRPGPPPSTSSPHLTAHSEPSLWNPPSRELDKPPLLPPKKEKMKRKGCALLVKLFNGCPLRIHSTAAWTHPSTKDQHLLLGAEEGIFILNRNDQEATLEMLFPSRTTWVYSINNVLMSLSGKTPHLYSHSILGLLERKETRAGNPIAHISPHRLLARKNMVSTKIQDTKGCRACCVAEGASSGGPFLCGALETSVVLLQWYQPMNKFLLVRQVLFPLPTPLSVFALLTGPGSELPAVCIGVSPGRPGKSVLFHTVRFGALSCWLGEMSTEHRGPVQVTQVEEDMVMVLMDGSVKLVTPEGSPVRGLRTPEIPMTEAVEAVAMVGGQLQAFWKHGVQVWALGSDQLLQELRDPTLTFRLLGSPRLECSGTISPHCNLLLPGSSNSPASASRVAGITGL

BMP-2-inducible protein kinase (Homo sapiens), sequence (Q9NSY1 whole entry, looked up): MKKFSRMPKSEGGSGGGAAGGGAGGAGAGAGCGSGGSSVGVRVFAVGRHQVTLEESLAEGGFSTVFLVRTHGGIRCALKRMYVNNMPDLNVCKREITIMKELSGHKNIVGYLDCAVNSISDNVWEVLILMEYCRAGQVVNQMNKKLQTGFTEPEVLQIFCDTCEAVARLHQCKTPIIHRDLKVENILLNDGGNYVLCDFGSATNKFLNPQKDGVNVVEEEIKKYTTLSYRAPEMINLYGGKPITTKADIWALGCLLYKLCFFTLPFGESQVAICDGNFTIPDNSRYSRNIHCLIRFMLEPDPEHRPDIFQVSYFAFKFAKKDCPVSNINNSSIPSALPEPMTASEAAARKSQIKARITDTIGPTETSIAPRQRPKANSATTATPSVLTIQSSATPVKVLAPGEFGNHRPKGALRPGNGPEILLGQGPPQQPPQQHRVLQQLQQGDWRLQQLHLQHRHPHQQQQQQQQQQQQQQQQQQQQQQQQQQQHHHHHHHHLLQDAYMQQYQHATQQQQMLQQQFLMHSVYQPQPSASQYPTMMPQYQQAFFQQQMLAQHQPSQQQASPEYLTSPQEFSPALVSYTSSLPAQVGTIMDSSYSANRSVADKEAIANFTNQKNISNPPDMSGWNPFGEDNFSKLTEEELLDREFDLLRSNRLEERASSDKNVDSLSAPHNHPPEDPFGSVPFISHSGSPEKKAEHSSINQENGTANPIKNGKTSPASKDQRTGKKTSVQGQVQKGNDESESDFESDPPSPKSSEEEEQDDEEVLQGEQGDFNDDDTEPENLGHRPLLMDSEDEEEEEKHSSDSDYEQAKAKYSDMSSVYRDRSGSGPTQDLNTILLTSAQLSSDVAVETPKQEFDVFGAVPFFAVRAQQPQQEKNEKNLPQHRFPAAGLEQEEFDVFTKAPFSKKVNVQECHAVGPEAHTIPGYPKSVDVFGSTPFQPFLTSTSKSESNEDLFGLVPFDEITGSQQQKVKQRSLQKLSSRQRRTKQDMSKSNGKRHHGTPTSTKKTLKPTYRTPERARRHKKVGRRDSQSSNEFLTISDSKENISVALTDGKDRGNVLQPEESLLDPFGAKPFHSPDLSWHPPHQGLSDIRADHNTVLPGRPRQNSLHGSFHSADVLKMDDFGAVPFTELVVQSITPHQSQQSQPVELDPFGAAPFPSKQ
Casein kinase I isoform delta, sequence (P48730 whole entry, looked up, canonical isoform): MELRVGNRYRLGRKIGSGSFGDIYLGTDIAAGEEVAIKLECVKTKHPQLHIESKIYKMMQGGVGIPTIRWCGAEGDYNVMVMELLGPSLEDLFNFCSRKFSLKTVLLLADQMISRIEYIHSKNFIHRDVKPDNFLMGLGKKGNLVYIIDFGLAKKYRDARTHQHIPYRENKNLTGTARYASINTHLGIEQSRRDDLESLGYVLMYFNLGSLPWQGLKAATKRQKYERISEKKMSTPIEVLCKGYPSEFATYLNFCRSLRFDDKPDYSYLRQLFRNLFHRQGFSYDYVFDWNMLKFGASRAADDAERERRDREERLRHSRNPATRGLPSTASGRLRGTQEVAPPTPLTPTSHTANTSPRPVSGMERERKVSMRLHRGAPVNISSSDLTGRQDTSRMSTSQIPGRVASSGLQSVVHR
SRSF protein kinase 1, sequence (Q96SB4 whole entry): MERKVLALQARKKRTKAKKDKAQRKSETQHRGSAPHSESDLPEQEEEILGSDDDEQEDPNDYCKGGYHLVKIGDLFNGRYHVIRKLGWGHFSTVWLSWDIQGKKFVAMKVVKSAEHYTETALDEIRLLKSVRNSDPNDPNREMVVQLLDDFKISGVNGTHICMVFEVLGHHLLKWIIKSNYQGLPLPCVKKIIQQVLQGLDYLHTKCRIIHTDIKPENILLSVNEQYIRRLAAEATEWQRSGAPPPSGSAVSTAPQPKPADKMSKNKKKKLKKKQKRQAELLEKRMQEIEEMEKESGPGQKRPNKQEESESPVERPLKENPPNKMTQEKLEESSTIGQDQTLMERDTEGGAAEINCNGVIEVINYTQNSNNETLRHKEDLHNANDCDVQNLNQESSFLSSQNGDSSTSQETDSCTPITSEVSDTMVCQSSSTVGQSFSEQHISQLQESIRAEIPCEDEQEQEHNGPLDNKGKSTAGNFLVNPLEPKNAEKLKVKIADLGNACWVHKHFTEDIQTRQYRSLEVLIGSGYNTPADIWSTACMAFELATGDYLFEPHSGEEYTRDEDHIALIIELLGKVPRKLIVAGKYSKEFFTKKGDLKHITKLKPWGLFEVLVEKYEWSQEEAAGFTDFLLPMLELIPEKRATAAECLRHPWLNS

For `CCN(CC)CCCCNc1ncc2cc(-c3cc(OC)cc(OC)c3)c(NC(=O)NC(C)(C)C)nc2n1`, the % of control [1] was 100%.

With `COc1cc(N(C)c2ccnc3ccc(C(F)(F)F)cc23)cc(OC)c1OC` the % binding [2] was 100% and the % binding [3] was 92%.

In the case of `CCC(=O)N1CCN(c2ccc(-n3c(=O)ccc4cnc5ccc(-c6cnc7ccccc7c6)cc5c43)cc2C(F)(F)F)CC1`, the % of control [4] was 4.3%.

For `Cc1ccc(-c2ccc3c(ccc4sc5c(c43)NC[C@@H](C)NC5=O)n2)cn1`, the % of inhibition [5] was 35%.

`CN1CCN(C(=O)c2ccc3cc2OCCOCCNc2ccn4ncc-3c4n2)CC1` gave a dTM [6] of 6.8 K.

In the case of `CC[C@@H]1[C@H](F)C(=O)N[C@@H]1COc1nccc2cc(C(N)=O)c(OC)cc12` [ZIMLOVISERTIB], the % of inhibition (SRSF protein kinase 1) was -1.1%.

With `Cc1cc(F)c(C(=O)Nc2cccc(-c3nncn3C(C)C)n2)cc1-n1cnc(C2CC2)c1` the % of control [7] was 100%.

For `COCC(=O)NC/C=C/c1ccc2ncnc(Nc3ccc(Oc4ccc(C)nc4)c(C)c3)c2c1` [CP-724714], the % of control [8] was 95%.

`N#Cc1cccc(-c2c[nH]c3ncnc(N4CCOCC4)c23)c1` showed a % of control [9] of 79%.
